In patent US20240390295A1, “METHODS FOR TREATING DEPRESSION” (JANSSEN PHARMACEUTICA NV, priority 2020, published 2024):
“And” between values parts separate entries of the source, which are not always exact repeats. Identical values can stand only once.

Tested on: adult patients (aged 18-64 years) with TRD
Test: Maximum time to onset of clinician-reported adverse events by AE week 1/week 4 occurrence (Tables 5-16; modal dose 56, modal dose 84, Total)
Assay type: in vivo, human
Conditions: for Blood Pressure (clinician): n >60 m / Blood Pressure (clinician): 31-60 m / Blood Pressure (clinician): 61-90 m / Blood Pressure (clinician): % >60 m / Blood Pressure (clinician): TOTAL / Dissociation (clinician), % >60 m / Dizziness, % >60 m / Sedation, % >60 m / Vertigo, % >60 m: Based on Week 4; for Sedation(clinician-reported), n (%) / Vertigo(clinician-reported), n (%) / Dissociation(clinician-reported), n (%) / Blood pressure increased (clinician-reported), n (%) / Dizziness(clinician-reported), n (%): listed as ESK
Procedure: Patients were monitored for >90 minutes after ESK administration at each treatment session, after which time they could leave the clinical site at the clinician's discretion. AEs were monitored and reported, and safety assessments, including clinical laboratory tests and physical examinations, were conducted throughout the study. Clinician-reported AEs were categorized as mild, moderate, or severe based on clinical judgement (Table 1).
Since flexible dosing (ESK 56 or 84 mg) was permitted in the studies and an individual patient's doses could change within dosing timeframes, patients were stratified by modal dose during the respective periods.
The time to onset of the adverse events experienced by patients in Example 2 was analyzed. Tables 5-11 include the summary of specific adverse events by their respective categorized maximum time to Onset (i) across sessions 3-8 during Induction Phase by AE week 1 occurrence (Table 5), (ii) during Optimization Phase by AE week 1 occurrence (Table 6), (iii) during Optimization Phase by AE week 4 occurrence (Table 7), (iv) during Month 3-6 of Maintenance Phase by AE week 1 occurrence (Table 8), (v) Month 3-6 of Maintenance Phase by AE week 4 occurrence (Table 9), (vi) Month 6-12 of Maintenance Phase by AE week 1 occurrence (Table 10), and (vii) during Month 6-12 of Maintenance Phase by AE week 4 (Table 11).
Tables 12-16 include the incidences of clinician-reported blood pressure (Table 12), clinician-reported dissociation (Table 13), dizziness (Table 14), sedation (Table 15), and vertigo (Table 16) spanning week 1 to month 12 using the data of Example 2.

[1] = Induction Phase sessions 3-8, AE week 1 None
[2] = Induction Phase sessions 3-8, AE week 1 Once
[3] = Induction Phase sessions 3-8, AE week 1 Twice
[4] = Month 3-6 Maintenance, AE week 1 None, onset missing
[5] = Month 3-6 Maintenance, AE week 4 None, onset 31-60 minutes
[6] = Month 3-6 Maintenance, AE week 4 None, onset missing
[7] = Month 6-12 Maintenance, AE week 4 Once
[8] = Month 6-12 Maintenance, AE week 4 Twice, onset 31-60 minutes
[9] = Optimization Phase, AE week 1 Once
[10] = Optimization Phase, AE week 4 None

CN[C@]1(c2ccccc2Cl)CCCCC1=O [esketamine, (S)-2-(2-chlorophenyl)-2-(methylamino)cyclohexanone]
Blood Pressure (clinician): n >60 m (None, Month 3-6): 1
Blood Pressure (clinician): 31-60 m (None, Month 6-12): 6
Blood Pressure (clinician): 61-90 m (None, Month 6-12): 1
Blood Pressure (clinician): % >60 m (None, Month 6-12): 12.5%
Blood Pressure (clinician): TOTAL (None, Month 6-12): 8
Blood Pressure (clinician): n >60 m (None, Month 6-12): 1
Blood Pressure (clinician): 31-60 m (Once, Month 2): 9
Blood Pressure (clinician): % >60 m (Once, Month 2): 0%
Blood Pressure (clinician): TOTAL (Once, Month 2): 9
Blood Pressure (clinician): n >60 m (Once, Month 2): 0
Blood Pressure (clinician): 31-60 m (Once, Month 3-6): 5
Blood Pressure (clinician): % >60 m (Once, Month 3-6): 0%
Blood Pressure (clinician): TOTAL (Once, Month 3-6): 5
Blood Pressure (clinician): n >60 m (Once, Month 3-6): 0
Blood Pressure (clinician): 31-60 m (Once, Month 6-12): 3
Blood Pressure (clinician): % >60 m (Once, Month 6-12): 0%
Blood Pressure (clinician): TOTAL (Once, Month 6-12): 3
Blood Pressure (clinician): n >60 m (Once, Month 6-12): 0
Blood Pressure (clinician): 31-60 m (Twice, Month 2): 9
Blood Pressure (clinician): % >60 m (Twice, Month 2): 0%
Blood Pressure (clinician): TOTAL (Twice, Month 2): 9
Blood Pressure (clinician): n >60 m (Twice, Month 2): 0
Blood Pressure (clinician): 31-60 m (Twice, Month 3-6): 2
Blood Pressure (clinician): 61-90 m (Twice, Month 3-6): 1
Blood Pressure (clinician): % >60 m (Twice, Month 3-6): 33.3%
Blood Pressure (clinician): TOTAL (Twice, Month 3-6): 3
Blood Pressure (clinician): n >60 m (Twice, Month 3-6): 1
Blood Pressure (clinician): 31-60 m (Twice, Month 6-12): 2
Blood Pressure (clinician): % >60 m (Twice, Month 6-12): 0%
Blood Pressure (clinician): TOTAL (Twice, Month 6-12): 2
Blood Pressure (clinician): n >60 m (Twice, Month 6-12): 0
Dissociation (clinician), % >60 m (incidence None, Month 2): 0%
Dizziness, % >60 m (incidence None, Month 2): 8.6%
Sedation, % >60 m (incidence None, Month 2): 0%
Vertigo, % >60 m (incidence None, Month 2): 12%
Dissociation (clinician), % >60 m (incidence None, Month 3-6): 2.6%
Dizziness, % >60 m (incidence None, Month 3-6): 2.1%
Sedation, % >60 m (incidence None, Month 3-6): 14.3%
Vertigo, % >60 m (incidence None, Month 3-6): 13.6%
Dissociation (clinician), % >60 m (incidence None, Month 6-12): 4.2%
Dizziness, % >60 m (incidence None, Month 6-12): 0%
Sedation, % >60 m (incidence None, Month 6-12): 0%
Vertigo, % >60 m (incidence None, Month 6-12): 0%
Dissociation (clinician), % >60 m (incidence Once, Month 2): 4.8%
Dizziness, % >60 m (incidence Once, Month 2): 3.7%
Sedation, % >60 m (incidence Once, Month 2): 0%
Vertigo, % >60 m (incidence Once, Month 2): 4.3%
Dissociation (clinician), % >60 m (incidence Once, Month 3-6): 6.7%
Dizziness, % >60 m (incidence Once, Month 3-6): 0%
Sedation, % >60 m (incidence Once, Month 3-6): 0%
Vertigo, % >60 m (incidence Once, Month 3-6): 0%
Dissociation (clinician), % >60 m (incidence Once, Month 6-12): 0%
Dizziness, % >60 m (incidence Once, Month 6-12): 0%
Sedation, % >60 m (incidence Once, Month 6-12): 0%
Vertigo, % >60 m (incidence Once, Month 6-12): 25%
Dissociation (clinician), % >60 m (incidence Twice, Month 2): 0%
Dizziness, % >60 m (incidence Twice, Month 2): 3.8%
Sedation, % >60 m (incidence Twice, Month 2): 0%
Vertigo, % >60 m (incidence Twice, Month 2): 0%
Dissociation (clinician), % >60 m (incidence Twice, Month 3-6): 3%
Dizziness, % >60 m (incidence Twice, Month 3-6): 3%
Sedation, % >60 m (incidence Twice, Month 3-6): 0%
Vertigo, % >60 m (incidence Twice, Month 3-6): 9.5%
Dissociation (clinician), % >60 m (incidence Twice, Month 6-12): 0%
Dizziness, % >60 m (incidence Twice, Month 6-12): 5.9%
Sedation, % >60 m (incidence Twice, Month 6-12): 0%
Vertigo, % >60 m (incidence Twice, Month 6-12): 0%
Blood pressure increased: time to onset 31-60 minutes [1]: 10 (90.9%) and 10 (100%) and 20 (95.2%)
Sedation: time to onset 31-60 minutes [1]: 2 (22.2%) and 2 (20.0%) and 4 (21.1%)
Sedation: time to onset >90 minutes [1]: 1 (11.1%) and 1 (10.0%) and 2 (10.5%)
Vertigo: time to onset 61-90 minutes [1]: 1 (3.3%) and 1 (6.7%) and 2 (4.4%)
Dizziness: time to onset 31-60 minutes [2]: 4 (12.1%) and 4 (17.4%) and 8 (14.3%)
Dizziness: time to onset 61-90 minutes [2]: 1 (3.0%) and 1 (4.3%) and 2 (3.6%)
Vertigo: time to onset >90 minutes [2]: 1 (9.1%) and 1 (5.6%) and 2 (6.9%)
Dissociation: time to onset 61-90 minutes [3]: 2 (5.6%) and 2 (7.1%) and 4 (6.3%)
Dizziness: time to onset >90 minutes [3]: 1 (2.8%) and 1 (2.5%) and 2 (2.6%)
Sedation(clinician-reported), n (%) (Month 3-6 Maintenance, AE week 1 None, onset 31-60 minutes): 1 (20.0%) and 1 (8.3%) and 2 (11.8%)
Vertigo(clinician-reported), n (%) (Month 3-6 Maintenance, AE week 1 None, onset 61-90 minutes): 1 (10.0%) and 1 (12.5%) and 2 (11.1%)
Dissociation(clinician-reported), n (%) [4]: 1 (5.9%) and 1 (5.3%) and 2 (5.6%)
Sedation(clinician-reported), n (%) [4]: 1 (20.0%) and 1 (8.3%) and 2 (11.8%)
Blood pressure increased (clinician-reported), n (%) (Month 3-6 Maintenance, AE week 1 Once): 2 (2.0%) and 2 (1.9%) and 4 (2.0%)
Blood pressure increased (clinician-reported), n (%) (Month 3-6 Maintenance, AE week 1 Once, onset 31-60 minutes): 2 (100%) and 4 (100%)
Blood pressure increased (clinician-reported), n (%) (Month 3-6 Maintenance, AE week 1 Twice): 2 (2.0%) and 2 (1.9%) and 4 (2.0%)
Vertigo(clinician-reported), n (%) (Month 3-6 Maintenance, AE week 1 Twice, onset 0-30 minutes): 11 (91.7%) and 11 (84.6%) and 22 (88.0%)
Dissociation(clinician-reported), n (%) [5]: 5 (27.8%) and 5 (25.0%) and 10 (26.3%)
Sedation(clinician-reported), n (%) [5]: 1 (20.0%) and 1 (11.1%) and 2 (14.3%)
Vertigo(clinician-reported), n (%) (Month 3-6 Maintenance, AE week 4 None, onset 61-90 minutes): 1 (8.3%) and 1 (10.0%) and 2 (9.1%)
Dissociation(clinician-reported), n (%) [6]: 1 (5.6%) and 1 (5.0%) and 2 (5.3%)
Dizziness(clinician-reported), n (%) [6]: 2 (6.9%) and 2 (11.1%) and 4 (8.5%)
Vertigo(clinician-reported), n (%) (Month 3-6 Maintenance, AE week 4 Once): 3 (3.0%) and 3 (2.9%) and 6 (3.0%)
Vertigo(clinician-reported), n (%) (Month 3-6 Maintenance, AE week 4 Once, onset 0-30 minutes): 3 (100%) and 6 (100%)
Dizziness(clinician-reported), n (%) (Month 3-6 Maintenance, AE week 4 Once, onset 31-60 minutes): 1 (14.3%) and 1 (16.7%) and 2 (15.4%)
Vertigo(clinician-reported), n (%) (Month 3-6 Maintenance, AE week 4 Twice, onset 61-90 minutes): 1 (12.5%) and 1 (7.7%) and 2 (9.5%)
Sedation(clinician-reported), n (%) (Month 6-12 Maintenance, AE week 1 None): 5 (7.5%) and 5 (8.3%) and 10 (7.9%)
Sedation(clinician-reported), n (%) (Month 6-12 Maintenance, AE week 1 None, onset missing): 1 (20.0%) and 2 (20.0%)
Dizziness(clinician-reported), n (%) (Month 6-12 Maintenance, AE week 1 Twice): 7 (10.4%) and 7 (11.7%) and 14 (11.0%)
Vertigo(clinician-reported), n (%) (Month 6-12 Maintenance, AE week 1 Twice, onset 31-60 minutes): 1 (10.0%) and 1 (16.7%) and 2 (12.5%)
Sedation(clinician-reported), n (%) (Month 6-12 Maintenance, AE week 4 None): 4 (6.0%) and 4 (6.7%) and 8 (6.3%)
Vertigo(clinician-reported), n (%) (Month 6-12 Maintenance, AE week 4 None, onset 31-60 minutes): 1 (14.3%) and 1 (25.0%) and 2 (18.2%)
Sedation(clinician-reported), n (%) (Month 6-12 Maintenance, AE week 4 None, onset missing): 1 (25.0%) and 2 (25.0%)
Sedation(clinician-reported), n (%) [7]: 2 (3.0%) and 2 (3.3%) and 4 (3.1%)
Vertigo(clinician-reported), n (%) [7]: 2 (3.0%) and 2 (3.3%) and 4 (3.1%)
Vertigo(clinician-reported), n (%) (Month 6-12 Maintenance, AE week 4 Once, onset 0-30 minutes): 1 (50.0%) and 2 (50.0%)
Dissociation(clinician-reported), n (%) (Month 6-12 Maintenance, AE week 4 Once, onset 31-60 minutes): 1 (100%) and 1 (12.5%) and 2 (22.2%)
Blood pressure increased (clinician-reported), n (%) (Month 6-12 Maintenance, AE week 4 Twice): 1 (1.5%) and 1 (1.7%) and 2 (1.6%)
Blood pressure increased (clinician-reported), n (%) [8]: 1 (100%) and 2 (100%)
Vertigo(clinician-reported), n (%) [8]: 1 (11.1%) and 1 (16.7%) and 2 (13.3%)
Dizziness: time to onset >90 minutes [9]: 1 (5.6%) and 1 (6.7%) and 2 (6.1%)
Sedation: patients with AE [9]: 2 (1.5%) and 2 (1.2%) and 4 (1.3%)
Vertigo: time to onset 31-60 minutes [9]: 1 (12.5%) and 1 (9.1%) and 2 (10.5%)
Vertigo: time to onset >90 minutes [9]: 1 (12.5%) and 1 (9.1%) and 2 (10.5%)
Blood pressure increased: patients with AE [10]: 9 (6.8%) and 9 (5.4%) and 18 (6.0%)
Dissociation: patients with AE [10]: 23 (17.4%) and 23 (13.8%) and 46 (15.4%)
Sedation: patients with AE [10]: 5 (3.8%) and 5 (3.0%) and 10 (3.3%)
Vertigo: time to onset 61-90 minutes [10]: 1 (10.0%) and 1 (6.7%) and 2 (8.0%)
Dizziness: time to onset 31-60 minutes (Optimization Phase, AE week 4 Once): 1 (9.1%) and 1 (6.3%) and 2 (7.4%)
Dizziness: time to onset 31-60 minutes (Optimization Phase, AE week 4 Twice): 1 (3.7%) and 1 (3.8%) and 2 (3.8%)
time at which adverse events (particularly dissociation, increase in blood pressure) generally peak (human, in vivo, other: intranasal): ~40 min
